Experimental data taken from US20250011347A1, “NOVEL PLASMALOGEN DERIVATIVE” (Institute of Rheological Function of Food Co., Ltd., priority 2021, published 2025).
Entries after “also recorded” stand apart in the source; their conditions may differ.

Legend:
[1] = tested on: inflammatory cytokine IL-1β; experiment: LPS-induced IL-1β expression in BV2 microglial cells (semi-quantitative PCR); type: cell-based, mouse; conditions: compound 5 μg/ml 12 hours, then LPS 1 μg/ml 2 hours, FIG. 1
Description: Mouse microglial cells (BV2) were cultured using a DMEM medium containing 2% FBS (fetal bovine serum) for 12 hours under conditions with or without the addition of the compound of the present invention, KIT-008 (5 μg/ml). Thereafter, the cells were treated with LPS (1 μg/ml) for 2 hours, and intracellular RNAs were extracted with an RNA extraction kit (TRI Reagent, Molecular Research Center Inc.), and the expression of an inflammatory cytokine IL-1β and the RNA expression of the Gapdh gene as a control were detected by semi-quantitative PCR (TaKaRa PrimeScript 1st strand cDNA synthesis Kit, TAKARA BIOTECHNOLOGY Co., LTD.).

[2] = tested on: p65 (NFkB); experiment: LPS-induced p65 nuclear accumulation in BV2 microglial cells (Western blotting); type: cell-based, mouse; conditions: compound 5 μg/ml 12 hours, then LPS 1 μg/ml 2 hours, FIG. 2
Description: (§1) Mouse microglial cells (BV2) were cultured using a DMEM medium containing 2% FBS (fetal bovine serum) for 12 hours under conditions with or without the addition of the compound of the present invention, KIT-008 or KIT-020 (5 μg/ml). Thereafter, it was treated with LPS (1 μg/ml) for 2 hours, proteins in the cell nucleus were extracted, and p65 (NFkB) protein expression was detected by Western blotting using NF-κB p65 (Cell Signaling Technology, the clone name: D14E12) as a primary antibody and Anti-Rabbit IgG HRP-linked antibody (Cell Signaling Technology) as a secondary antibody.

[3] = tested on: MeCP2-deficient mice; experiment: Survival (lifetime) of MeCP2-deficient mice; type: in vivo, mouse; conditions: male MeCP2-deficient mice from 4 weeks old, 20 ng/g body weight in drinking water twice a week
Description: Four-week-old male MeCP2-deficient mice were used in the experiment. The MeCP2-deficient mice were divided into two groups: a KIT-008 administration group (KO-KIT-008, n=13) and a control group (KO-All, n=28). The body weight of each of the mice in the administration group was measured in advance. The compound KIT-008 was suspended in water by sonication so that KIT-008 was ingested at 20 ng/g body weight, and it was continuously administered in drinking water to each mouse twice a week to verify its survival. The control group was given only water in the same manner.

[4] = tested on: lysosomes in mouse neurons Neuro2a (N2a); experiment: Impaired lysosomal acidification in Neuro2a neurons induced by culture supernatant of LPS-treated BV2; type: cell-based; conditions: N2a cells, compound 24 hours, then 24 hours in supernatant of LPS-treated BV2 with compound; LysoTracker Red; FIG. 10
Description: Lysosomes in mouse neurons Neuro2a (N2a) cultured in a normal DMEM medium were labeled with LysoPrime Green (Dojindo). LysoPrime Green is a fluorescent dye that is highly specific for lysosomes which are acidic organelles and that is resistant to pH changes.
Then, N2a is cultured in the culture supernatant of mouse glial cells BV2 treated with the endotoxin lipopolysaccharide (LPS) (1 μg/ml, 18 h) or the culture supernatant of untreated BV2, and labeled with LysoTracker™ Red DND-99 (Thermo Fisher Scientific) which targets acidic organelles.
That is, it was shown that acidification of the lysosomes in the neurons were impaired by glial cell-derived factors in the medium resulting from inflammation.
Each of the compounds of the present invention, KIT-008, KIT-019 and KIT-020 was added to the medium of N2a cells and cultured for 24 hours, and then cultured for another 24 hours in the culture supernatant of BV2 administered with LPS in the presence of each compound.

[5] = tested on: amyloid beta (Aβ) in N2a cells; experiment: Amyloid beta (Aβ) accumulation in lysosomes of CFPAPPsw-expressing N2a cells; type: cell-based, mouse; conditions: N2a cells expressing CFPAPPsw in LPS-treated BV2-derived medium, pretreatment with compound; antibody 6E10; FIG. 11
Description: A plasmid having cDNA encoding CFPAPPsw (CFPAPPsw that fuses a fluorescent protein CFP to the N-terminus of an amyloid precursor protein (APPsw) having a Swedish-type amino acid substitution that is easily cleaved by BACE) was expressed in N2a cells, and localization of amyloid beta (Aβ) in the N2a cells in an untreated mouse glial cell BV2 culture supernatant (−LPS), in the N2a cells in LPS-treated BV2 culture supernatant (LPS-treated BV2-derived medium), and in the N2a cells administered with KIT-008 was verified using an antibody 6E10 (BioLegend) that recognizes the Aβ portion.

[6] = tested on: c57BL6J mice; experiment: Water maze test of mice with LPS-induced memory impairment; type: in vivo, mouse; conditions: 10 mg/50 kg/day in drinking water 4 weeks, then LPS 7 days, Trial 6, P<0.05, FIG. 12
Description: Specifically, 8-week-old male c57BL6J mice (5 mice in each group, n=5) were allowed to drink each of the compounds of the present invention (KIT-008 and KIT-020) at a dose of 10 mg/50 kg/day for 4 weeks, and were then subjected to LPS treatment (200 mg/kg/day) for 7 days while allowing them to drink the compound in the same manner. Thereafter, they were subjected to a water maze test for 2 days (3 trials per day).
Escape Latency indicates the time required to arrive at an escape platform (arrival time). Comparisons between groups were performed by ANOVA test and Bonferroni's post hoc test. […] Therefore, the compounds of the present invention are effective in improving brain function (cognitive function).

[7] = tested on: amyloid beta (Aβ) deposition in hippocampal tissue; experiment: LPS-induced amyloid beta (Aβ) deposition in mouse hippocampal tissue (immunohistochemistry); type: in vivo; conditions: c57BL6J mice hippocampal tissue, 10 mg/50 kg/day in drinking water 4 weeks, then LPS 10 days; FIG. 13, 14
Description: Specifically, 8-week-old male c57BL6J mice were allowed to drink each of the compounds of the present invention (KIT-008 and KIT-020) at a dose of 10 mg/50 kg/day for 4 weeks, and were then subjected to LPS treatment (200 mg/kg/day) for 10 days while allowing them to drink the compound in the same manner. The mouse hippocampal tissue was subjected to an immunohistochemistry test using an anti-amyloid beta antibody (a cocktail of two antibodies, 6E10 (BioLegend) and 82E1 (Immuno-Biological Laboratories Co, Ltd)). DAPI was used to stain a cell nucleus. In FIG. 13, the scale bar is 100 μm and the arrows indicate amyloid beta that deposited. The data in FIG. 14 represent the average number of amyloid beta deposition in each group (3 mice, n=3). In the LPS group, amyloid beta deposition was observed compared to the control group, but in the KIT-008 group and the KIT-020 group, amyloid beta deposition caused by LPS was suppressed.

[8] = tested on: inducible nitric oxide synthase (iNOS); experiment: LPS-induced iNOS expression in mouse hippocampal tissue (immunohistochemistry); type: in vivo; conditions: c57BL6J mice hippocampal tissue, 10 mg/50 kg/day in drinking water 4 weeks, then LPS 10 days; FIG. 15, 16
Description: Specifically, 8-week-old male c57BL6J mice were allowed to drink each of the compounds of the present invention (KIT-008 and KIT-020) at a dose of 10 mg/50 kg/day for 4 weeks, and were then subjected to LPS treatment (200 mg/kg/day) for 10 days while allowing them to drink the compound in the same manner. The mouse brain tissue was subjected to an immunohistochemistry (IHC) study using an anti-NeuN antibody (a neuron marker, Millipore MAB377) and an anti-iNOS antibody (an inflammatory marker, Invitrogen PA1-036). DAPI was used to stain a cell nucleus.
In FIG. 15, the scale bar is 50 μm and the arrows indicate iNOS-positive neurons. The data in FIG. 16 represents the average value for each group (3 mice, n=3). In the LPS group, the number of iNOS-positive neurons increased compared to that in the control group, but in the KIT-008 group and the KIT-020 group, the increase in iNOS-positive neurons caused by LPS was suppressed.

[9] = tested on: microglia (Iba1-positive cells) and astrocytes (GFAP-positive cells) in hippocampal tissue; experiment: LPS-induced amoeboid shaped microglia and astrocytes increase in mouse hippocampal tissue (immunohistochemistry); type: in vivo; conditions: c57BL6J mice hippocampal tissue, 10 mg/50 kg/day in drinking water 4 weeks, then LPS 10 days; for LPS-induced amoeboid shaped astrocytes (GFAP-positive cells) increase / LPS-induced amoeboid shaped microglia (Iba1-positive cells) increase: FIG. 17, 18; for LPS-induced astrocytes (GFAP-positive cells) increase (number): FIG. 18 lower graph
Description: Specifically, 8-week-old male c57BL6J mice were allowed to drink each of the compounds of the present invention (KIT-008 and KIT-020) at a dose of 10 mg/50 kg/day for 4 weeks, and were then subjected to LPS treatment (200 mg/kg/day) for 10 days while allowing them to drink the compound in the same manner. The mouse brain tissue was subjected to an immunohistochemistry (IHC) study using Iba1 (a microglia marker, Fujifilm 019-19741) and GFAP (an astrocyte marker, Sigma C9205). DAPI was used to stain a cell nucleus. In FIG. 17, the scale bar is 100 μm. The data in FIG. 18 represent the percentages of amoeboid shaped microglia and amoeboid shaped astrocytes (upper graphs) and the number of astrocytes (GFAP-positive cells) (a lower graph) in each group (3 mice, n=3). In the LPS group, the amoeboid shaped microglia (Iba1-positive cells) and the amoeboid shaped astrocytes (GFAP-positive cells) increased compared to the control group. In addition, the astrocytes (GFAP-positive cells) increased. However, in the KIT-008 group and the KIT-020 group, the LPS-induced amoeboid shaped microglia (Iba1-positive cells) increase and amoeboid shaped astrocytes (GFAP-positive cells) increase and astrocytes (GFAP-positive cells) increase were suppressed.

[10] = tested on: p65 (NFkB); experiment: LPS-induced p65 nuclear accumulation in MG6 microglial cells (Western blotting); type: cell-based, mouse; conditions: compound 5 μg/ml 24 hours, then LPS 1 μg/ml 8 hours, FIG. 3
Description: as §1, with “cells (MG6)” for “cells (BV2)”, “for 24” for “for 12”, “invention, KIT-019” for “invention, KIT-008”, “for 8” for “for 2”

[11] = tested on: IL-1β protein; experiment: LPS-induced secreted IL-1β protein in MG6 microglial cells (ELISA); type: cell-based, mouse; conditions: compound 5 μg/ml 24 hours, then LPS 1 μg/ml 8 hours, ELISA of culture medium, FIG. 4
Description: Five-thousand mouse microglial cells (MG6) were cultured in a 96-well dish containing 100 μl of a DMEM medium containing 2% FBS (fetal bovine serum). Then, 5 μg/ml of each of the compounds of the present invention, KIT-019 and KIT-020 was added and cultured for 24 hours. Thereafter, it was treated with LPS (1 μg/ml) for 8 hours. The culture medium was collected, and the secreted IL-1β protein was measured by ELISA using DuoSet Mouse IL-1β (R&D Systems).

| Structure (SMILES) | LPS-induced inflammatory cytokine IL-1β expression [1] | LPS-induced p65 nuclear accumulation [2] | survival rate compared with MeCP2-deficient mice not administered ([3]; FIG. 5) | number of days until the survival rate reached 50% ([3]; control group 64.5 days) [days] | impaired acidification of lysosomes in neurons caused by glial cell-derived factors [4] | accumulation of Aβ in lysosomes [5] | memory retention (Escape Latency) compared to the LPS group [6] | amyloid beta deposition caused by LPS [7] | increase in iNOS-positive neurons caused by LPS [8] | LPS-induced amoeboid shaped astrocytes (GFAP-positive cells) increase [9] | LPS-induced amoeboid shaped microglia (Iba1-positive cells) increase [9] | LPS-induced astrocytes (GFAP-positive cells) increase (number) [9] | LPS-induced p65 nuclear accumulation [10] | LPS-induced inflammatory cytokine IL-1β protein expression [11] |
| --- | --- | --- | --- | --- | --- | --- | --- | --- | --- | --- | --- | --- | --- | --- |
| CC/C=C\C/C=C\C/C=C\C/C=C\C/C=C\C/C=C\CCC(=O)O[C@H](COC/C=C/CCCCCCCCCCCCCCC)COP(=O)(O)OCCN [KIT-008, 2-((((R)-2-(((4Z,7Z,10Z,13Z,16Z,19Z)-docosa-4,7,10,13,16,19-hexenoyl)oxy)-3-(((E)-octadec-2-en-1-yl)oxy)propoxy)(hydroxy)phosphoryl)oxy)ethane-1-ammonium 2,2,2-trifluoroacetate] | reduced | suppressed | higher | 78 | ameliorated; also recorded: highest effect | eliminated | improvement in memory retention | suppressed | suppressed | suppressed | suppressed | suppressed |  |  |
| CCCCCCCC/C=C\CCCCCCCC(=O)O[C@H](COC/C=C/CCCCCCCCCCCCCCC)COP(=O)(O)OCCN [KIT-019, 2-((hydroxy((R)-3-3-(((E)-octadec-2-en-1-yl)oxy)-2-(oleoyloxy)propyl)phosphoryl)oxy)ethane-1-ammonium 2,2,2-trifluoroacetate] |  |  |  |  | ameliorated |  |  |  |  |  |  |  | significantly suppressed | significantly reduced |
| CCCCC/C=C\C/C=C\C/C=C\C/C=C\CCCC(=O)O[C@H](COC/C=C/CCCCCCCCCCCCCCC)COP(=O)(O)OCCN [KIT-020, 2-((hydroxy((R)-2-(((5Z,8Z,11Z,14Z)-icosa-5,8,11,14-tetraenoyl)oxy)-3-(((E)-octadec-2-en-1-yl)oxy)propoxy)phosphoryl)oxy)ethane-1-ammonium 2,2,2-trifluoroacetate] |  | significantly suppressed |  |  | ameliorated |  | improvement in memory retention | suppressed | suppressed | suppressed | suppressed | suppressed | significantly suppressed | significantly reduced |
